Source: patent US8586505B2 (SDS Biotech K. K., priority 2009, dated 2013)

Legend:
Phytophthora infestans = test: whole plant or invertebrate; format: in vivo; conditions: in Solanum lycopersicum, 96 h, read-out: Determination of control effect (preventive value)
[1] = test system: Pseudoperonospora cubensis; test: Test of examining control effect on Pseudoperonospora cubensis (potted cucumber plants); format: in vivo; conditions: 96 h, 10% wettable powder adjusted to 125 ppm, 15 ml/pot sprayed on potted cucumber plants one day before spray inoculation, assessed after 1 day wet chamber and 3 days greenhouse, read-out: Determination of control effect (preventive value) on Pseudoperonospora cubensis
How it was run: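 Cucumber plants (Sagamihanjiro, 2.5-leaf stage) sprayed with 125 ppm compound solution from 10% wettable powder, 15 ml/pot. One day later, spray-inoculated with P. cubensis conidia (1.0×10^4 cells/ml), kept 1 day at 21° C wet, then 3 days in greenhouse. Preventive value derived from lesion area relative to untreated plants.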

Sphaerotheca fuliginea = test: Test of examining control effect on Sphaerotheca fuliginea (potted cucumber plants); format: in vivo; conditions: Podosphaera fuliginea, 336 h; 10% wettable powder adjusted to 125 ppm, 15 ml/pot sprayed on potted cucumber plants one day before spray inoculation; assessed after 14 days in greenhouse; read-out: Determination of control effect (preventive value) on Sphaerotheca fuliginea
How it was run: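 Cucumber plants (Sagamihanjiro, 2nd leaf stage) sprayed with 125 ppm compound (from 10% wettable powder), inoculated one day later with S. fuliginea conidia (1.0×10^5 cells/ml); lesion area scored after 14 days in greenhouse. Preventive value vs untreated; ≥60% high, <60% low control.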

| SMILES | pest or weed control at 125 ppm (Phytophthora infestans) [%] | pest or weed control at 125 µg/mL [1] [%] | pest or weed control at 125 µg/mL (Sphaerotheca fuliginea) [%] | melting point [°C] |
| --- | --- | --- | --- | --- |
| FC(F)(F)c1cccc(Oc2nc(C#CCCNc3ncnc4ccccc34)cs2)c1 [compound 219] | 0 to 60 | 60 to 100 | 60 to 100 | 106 to 108 |
| Fc1cc(Cl)ccc1C#CCCNc1ncnc2ccccc12 [compound 164] | 60 to 100 | 60 to 100 | 60 to 100 | 198 to 199 |
| CC(CC#Cc1cscn1)Nc1ncnc2ccccc12 (stereo not drawn) [compound 291] | 0 to 60 | 60 to 100 | 60 to 100 | 142 to 145 |
| COCc1ccccc1C#CCCNc1ncnc2ccc(I)cc12 [compound 322] | 0 to 60 | 60 to 100 | 60 to 100 | 121 to 123 |
| N#Cc1cccc(Oc2nc(C#CCCNc3ncnc4ccccc34)cs2)c1 [compound 222] | 0 to 60 | 60 to 100 | 60 to 100 | 137 to 139 |
| OCc1ccc(C#CCCNc2ncnc3ccccc23)cn1 [compound 202] | 0 to 60 | 60 to 100 | 0 to 60 | 183 to 185 |
| C(#Cc1ccccc1)CCNc1ncnc2ccccc12 [compound 96] | 60 to 100 | 60 to 100 | 60 to 100 | 120 to 122 |
| Fc1cncc(C#CCCNc2ncnc3ccccc23)c1 [compound 193] | 60 to 100 | 60 to 100 | 60 to 100 | 145 to 150 |
| CCOC(=O)c1cnc(C#CCCNc2ncnc3ccccc23)s1 [compound 213] | 0 to 60 | 60 to 100 | 60 to 100 | 113 to 114 |
| C(#Cc1nccs1)CCNc1ncnc2sccc12 [compound 62] | 60 to 100 | 60 to 100 | 60 to 100 | 128 to 129 |
| Clc1ncccc1C#CCCNc1ncnc2ccccc12 [compound 195] | 60 to 100 | 60 to 100 | 60 to 100 | 168 to 170 |
| COCc1ccccc1C#CCCNc1ncnc2c(Cl)cc(Cl)cc12 [compound 338] | 0 to 60 | 60 to 100 | 0 to 60 | 161 to 162 |
| CC(=O)OCc1nc(C#CCCNc2ncnc3sccc23)cs1 [compound 73] | 60 to 100 | 60 to 100 | 60 to 100 | 128 to 129 |
| OCc1cccc(C#CCCNc2ncnc3ccccc23)c1 [compound 131] | 60 to 100 | 60 to 100 | 60 to 100 | 113 to 115 |
| C(#Cc1ccc2ccccc2c1)CCNc1ncnc2ccccc12 [compound 183] | 60 to 100 | 60 to 100 | 60 to 100 | 159 to 160 |
| C(#Cc1cncs1)CCNc1ncnc2sccc12 [compound 61] | 60 to 100 | 60 to 100 | 60 to 100 | 156 to 158 |
| CS(=O)(=O)c1ccc(C#CCCNc2ncnc3ccccc23)cc1 [compound 120] | 60 to 100 | 60 to 100 | 60 to 100 | 164 to 165 |
| C(#Cc1ccccc1)CC(Nc1ncnc2ccccc12)c1ccccc1 (stereo not drawn) [compound 301, 4-[(1,4-diphenyl-3-butynyl)amino]quinazoline] | 0 to 60 | 0 to 60 | 0 to 60 | 141 to 143 |
| CCOC(=O)c1ccc(C#CCCNc2ncnc3ccccc23)cc1 [compound 129] | 0 to 60 | 60 to 100 | 0 to 60 | 137 to 138 |
| FC(F)(F)c1ccccc1C#CCC(Nc1ncnc2ccccc12)c1ccccc1 (stereo not drawn) [compound 302] | 0 to 60 | 0 to 60 | 0 to 60 | 150 to 152 |
| FC(F)(F)c1ccccc1C#CCCNc1ncnc2cc(Cl)ccc12 [compound 308] | 0 to 60 | 60 to 100 | 60 to 100 | 153 to 154 |
